Entries after “also recorded” stand apart in the source; their conditions may differ.
Tests used:
in vitro = settings: 37 C, followed for 720 min; for half-life at 10 µg/ml: Sprague-Dawley, rat, heparin-stabilised rat plasma, T½ in rat plasma; for T½ in rat plasma / kobs (degradation rate): heparin stabilised rat plasma
Protocol: The degradation of the two test compounds and in heparin stabilised rat (Sprague-Dawley) plasma was followed by the combination of solid phase extraction and LC-MS. The degradation was followed for 720 minutes in plasma.
Blank rat plasma in sodium heparin (5000 units/mL) were obtained from Harlan Sera Lab Ltd. (Loughborough, UK).
The LC-MS analysis was performed on an HP 1100 instrument consisting of an on-line degasser, a quaternary gradient pump, an auto sampler, a column oven, Hewlett Packard (Wilmington. Del., U.S.A.) in combination with a Quattro Ultima mass spectrometer from Micromass (Altrincham, UK). Both the LC and MS were controlled by MassLynx 3.3 software. The LC separations prior to MS detection were performed on a Vydac 218MS52 (2.1×250 mm) column (Hesperia, Calif., U.S.A.).
The initial plasma volume was 1000 μl (37° C.). From the initial plasma volume, 100 μl was transferred to a 0.75 ml HPLC vial (used as blank), mixed with 560 μl extraction solution (MeCN:0.18 M ammonium carbonate pH 9.5 (6:94 v/v), 4 C) and extracted by Solid Phase Extraction using ASPEC XL4 Robot. A volume of 100 μl stock solution was added to the remaining 900 μl plasma, mixed thoroughly and incubated at 37 C (corresponding to an initial concentration of 10 μg of the test compounds/ml). At each time point (0.2, 60, 120, 180, 240, 360, 480, 662 and 720 min., respectively) 100 μl of the drug containing plasma was collected, mixed with 560 μl ice cold extraction solution and immediately extracted by SPE as described above. The extracted plasma samples were analysed by LC-MS.
The samples were kept at 18° C. in the autosampler tray prior to injection of 10 μl. The separations were performed at 30° C. on a Vydac 218MS52 (2.1×250 mm) LC column using a linear gradient from 15 to 50% B within 14 min. at a flow rate of 250 μl/min 0.1% formic acid in water was used as mobile phase A and 0.1% formic acid in MeCN as mobile phase B. Compound 4 and Compound (iii) were detected by single ion recording (SIR) using the 6 H+(m/z=676.7) and 4 H+(m/z=822.1) ion species, respectively. The cone voltage for the analysis of compound (iii) and Compound 4 was set to 100 and 70 V respectively. […] The degradation of the two compounds were followed for 720 min and the results were plotted as the natural logarithm of the peak area vs. time.

diabetic ob/ob mice = assay: Single dose effect of oral and parenteral administration on blood glucose levels in diabetic ob/ob mice (Example 24); assay type: in vivo
Excerpt: This was examined using Compound 5 to test the effect on blood glucose (BG) levels in the ob/ob mutant mice after intraperitoneal (i.p.) and peroral (p.o.) administration. […] Forty female diabetic ob/ob mice (Umeä strain, Bomholtgaard), which are obese due to a dominant mutant leptin (Tomita, T., Doull, V., Pollock, H. G., and Krizsan, D. 1992. Pancreatic islets of obese hyperglycemic mice (ob/ob). […] At arrival the animals were 8 weeks of age. The mice were allowed 2 weeks of acclimatization before experiments were initiated. At the time of experiment the mice were 13 weeks old with a body weight of 41.8±3.2 g (mean±SD; n=42). Handling of the mice one and three days before the experiment was performed in order to reduce stress-induced BG excursions. On the day of the experiment, blood was taken from the tip of the tail 2-3 hours after the light was turned on. A single drop of blood (<5 μl) was dropped on the glucose strip for analysis and measured by an Elite Autoanalyser, Bayer, Denmark. Whole blood glucose (BG) concentration was analysed by the immobilised glucose oxidase method. Blood glucose levels varied between normoglycaemia and severe hyperglycaemia (range: 3.6-15.6 mM; mean±SD: 9.4±3.3 mM: n=42). Six animals with BG <5.8 mM were excluded from the study (total n=36). The remaining animals were stratified based on their BG levels in order to ensure that the mean BG was similar among groups. […] Compound 5 (batch nr. ZP 3.12 fraction 1-2. […] The peptide was dissolved in sterile isotonic NaCl shortly before dosing and given in a volume of 0.2 ml. The same solutions were used for both p.o. and i.p. administration. For each animal, a data log sheet was filled out at the time of each blood sampling. […] During control conditions, BG levels in non-fasted ob/ob mice were similar in all groups (individual group data not shown), but within groups, there was a great scatter on BG levels (BG range for all animals: 5.8-15.6 mM). Therefore, to correct for the varying degree of hyperglycemia, results are expressed as the relative difference from baseline (% control). […] In most groups (5/6), BG increased between 4 and 8 hrs after drug administration. Compound 5 reduced the BG levels in a dose of 110 μg/mouse when administered i.p. in diabetic ob/ob mice (data not shown). The antidiabetic effect was observed after 60 minutes and was maximal 2-4 h after administration of the compound. […] Glucagon-like peptide-1 and the entero-insular axis in obese hyperglycaemic (ob/ob) mice.

| SMILES | half-life at 10 µg/ml (in vitro) [h] | T½ in rat plasma (in vitro) [h] | kobs (degradation rate) (in vitro) [min⁻¹] | time of BG nadir after administration (diabetic ob/ob mice; 110 μg i.p.) [h] | duration of effect (long-lasting effect) (diabetic ob/ob mice; 110 μg/mouse i.p.) [h] | effect on blood glucose (BG) levels (diabetic ob/ob mice; 110 μg/mouse i.p.) | time at which antidiabetic effect was observed (diabetic ob/ob mice; 110 μg/mouse i.p.) [min] | time of maximal antidiabetic effect after administration (diabetic ob/ob mice; 110 μg/mouse i.p.) [h] | effect on blood glucose (BG) levels (diabetic ob/ob mice; p.o., doses lower than 1100 μg/mouse) |
| --- | --- | --- | --- | --- | --- | --- | --- | --- | --- |
| CC[C@H](C)[C@H](NC(=O)[C@H](Cc1ccccc1)NC(=O)[C@H](CCC(=O)O)NC(=O)[C@H](CCCCN)NC(=O)[C@H](C)NC(=O)[C@H](C)NC(=O)[C@H](CCC(N)=O)NC(=O)CNC(=O)[C@H](CCC(=O)O)NC(=O)[C@H](CC(C)C)NC(=O)[C@H](Cc1ccc(O)cc1)NC(=O)[C@H](CO)NC(=O)[C@H](CO)NC(=O)[C@@H](NC(=O)[C@H](CC(=O)O)NC(=O)[C@H](CO)NC(=O)[C@@H](NC(=O)[C@H](Cc1ccccc1)NC(=O)[C@@H](NC(=O)CNC(=O)[C@H](CCC(=O)O)NC(=O)CNC(=O)[C@@H](N)Cc1c[nH]cn1)[C@@H](C)O)[C@@H](C)O)C(C)C)C(=O)N[C@@H](C)C(=O)N[C@@H](Cc1c[nH]c2ccccc12)C(=O)N[C@@H](CC(C)C)C(=O)N[C@H](C(=O)N[C@@H](CCCCN)C(=O)NCC(=O)N[C@@H](CCCNC(=N)N)C(=O)N[C@@H](CCCCN)C(=O)N[C@@H](CCCCN)C(=O)N[C@@H](CCCCN)C(=O)N[C@@H](CCCCN)C(=O)N[C@@H](CCCCN)C(=O)N[C@@H](CCCCN)C(N)=O)C(C)C [Compound 4] | 7.77 | 7.768 | 0.0015 | – | – | – | – | – | – |
| CCCCCCCCCCCCCCCC(=O)NCCCC[C@H](NC(=O)[C@H](CCCNC(=N)N)NC(=O)CNC(=O)[C@H](CCCCN)NC(=O)[C@@H](NC(=O)[C@H](CC(C)C)NC(=O)[C@H](Cc1c[nH]c2ccccc12)NC(=O)[C@H](C)NC(=O)[C@@H](NC(=O)[C@H](Cc1ccccc1)NC(=O)[C@H](CCC(=O)O)NC(=O)[C@H](CCCCN)NC(=O)[C@H](C)NC(=O)[C@H](C)NC(=O)[C@H](CCC(N)=O)NC(=O)CNC(=O)[C@H](CCC(=O)O)NC(=O)[C@H](CC(C)C)NC(=O)[C@H](Cc1ccc(O)cc1)NC(=O)[C@H](CO)NC(=O)[C@H](CO)NC(=O)[C@@H](NC(=O)[C@H](CC(=O)O)NC(=O)[C@H](CO)NC(=O)[C@@H](NC(=O)[C@H](Cc1ccccc1)NC(=O)[C@@H](NC(=O)CNC(=O)[C@H](CCC(=O)O)NC(=O)CNC(=O)[C@@H](N)Cc1c[nH]cn1)[C@@H](C)O)[C@@H](C)O)C(C)C)[C@@H](C)CC)C(C)C)C(=O)N[C@@H](CCCCN)C(=O)N[C@@H](CCCCN)C(=O)N[C@@H](CCCCN)C(=O)N[C@@H](CCCCN)C(=O)N[C@@H](CCCCN)C(=O)N[C@@H](CCCCN)C(N)=O [Compound 5] | – | – | – | 1 to 2 | > 8 | reduced BG levels; also recorded: sustained decrease in BG; also recorded: effectively lowers BG levels | 60 | 2 to 4 | not at lower doses |
| CC[C@H](C)[C@H](NC(=O)[C@H](Cc1ccccc1)NC(=O)[C@H](CCC(=O)O)NC(=O)[C@H](CCCCN)NC(=O)[C@H](C)NC(=O)[C@H](C)NC(=O)[C@H](CCC(N)=O)NC(=O)CNC(=O)[C@H](CCC(=O)O)NC(=O)[C@H](CC(C)C)NC(=O)[C@H](Cc1ccc(O)cc1)NC(=O)[C@H](CO)NC(=O)[C@H](CO)NC(=O)[C@@H](NC(=O)[C@H](CC(=O)O)NC(=O)[C@H](CO)NC(=O)[C@@H](NC(=O)[C@H](Cc1ccccc1)NC(=O)[C@@H](NC(=O)CNC(=O)[C@H](CCC(=O)O)NC(=O)CNC(=O)[C@@H](N)Cc1cnc[nH]1)[C@@H](C)O)[C@@H](C)O)C(C)C)C(=O)N[C@@H](C)C(=O)N[C@@H](Cc1c[nH]c2ccccc12)C(=O)N[C@@H](CC(C)C)C(=O)N[C@H](C(=O)N[C@@H](CCCCN)C(=O)NCC(=O)N[C@@H](CCCNC(=N)N)C(N)=O)C(C)C [Compound (iii), reference compound] | 3.97 | 3.973 | 0.0029 | – | – | – | – | – | – |

Reference: patent publication USRE45313E1, “Exendin variant peptides” (priority 1999, dated 2014)
